From US20250163061A1 (Bala Therapeutics, Inc., priority 2021, published 2025) come the findings set out here.

Format in all cases: cell-based
The nature of data set [1]: HEK293 cellular growth inhibition assay (CellTiter-Glo). The note with it: human, HEK293 cells, 7 days of incubation. On the procedure:
(§1) HEK293 (Institute of Cytology Russian Academy of Science), MV4-11 (ATCC, CRL-9591), MOLM-13 (AcceGen, ABC-TC517S) were seeded at a density of 500 cells per well (HEK293) and 2000 cells per well (MV4-11, MOLM-13) in a 384-well clear bottom plate (Greiner Cat #781090) in 45 μl total volume of DMEM (PanEco, Cat #C420, Russia) or RPMI (PanEco, Cat #C330, Russia) with 10% FBS (HyClone Cat #SV30160.03). HEK293 were allowed to adhere overnight at 37° C., 5% CO2. 500× compounds solutions in DMSO (Sigma Cat #D2650) were prepared into Cmpnds plate (Diamond Well Plate, Axigen, Cat #P-384-120SQ-C-S) and DMSO only control was included. 1 μl of 500× compounds (Cmpnds plate) was added to 49 μl of culture medium into Dilution plate (Diamond Well Plate, Axigen, Cat #P-384-120SQ-C-S), mixed and then 5 μl of 10× compounds solutions were transferred to cells followed by centrifugation at 100 g for 1 min. Final DMSO concentration was 0.2%. After 3 days of incubation, 10 μl of 1× compounds were added to cells. After 7 days of incubation, 12 μl of CellTiter-Glo (Promega, CAT #G7572) were added to the cells, plate was centrifuged at 100 g for 1 min and luminescence signal was measured using Microplate Reader (CLARIOStar).
Background: Cellular ATP, detected with luciferase, serves as a proxy for viable cell number.

In another data set the test system is MOLM-13. Nature of the data set: MOLM-13 cellular growth inhibition assay (CellTiter-Glo). Conditions: Homo sapiens, 168 h, MOLM-13 cells, 7 days of incubation. The protocol: as §1
The next data set relates to MV4-11. As to the kind of experiment: MV4-11 cellular growth inhibition assay (CellTiter-Glo). The note with it: Homo sapiens, 168 h, MV4-11 cells, 7 days of incubation. The protocol:
as §1

Regarding `Cc1c(CN2CCC3(CC2)CN(c2ncnc4ccc(CC(F)(F)F)cc24)C3)ccc2c1cc(C#N)n2CC1CNC(=O)CO1` (centres unmarked) [Compound 82, 4-Methyl-1-[(5-oxomorpholin-2-yl)methyl]-5-({2-[6-(2,2,2-trifluoroethyl)quinazolin-4-yl]-2,7-diazaspiro[3.5]non-7-yl}methyl)-1H-indole-2-carbonitrile], the CC50 (usually the concentration that lowers cell viability or growth by half) at 7 days in data set [1] lay in the range of 2000 to 5000 nM. Also, the half-maximal cytotoxic concentration (CC50) in the data set on MOLM-13 was 100 to 500 nM; with MV4-11, ≤ 100 nM.
The matching figures for `COc1cc2c(cc1CN1CCC3(CC1)CN(c1ncnc4ccc(CC(F)(F)F)cc14)C3)cc(C#N)n2CC(C)N1CCN(S(C)(=O)=O)CC1` (centres unmarked) [Compound 20, 6-Methoxy-1-{2-[4-(methylsulfonyl)piperazin-1-yl]propyl}-5-({2-[6-(2,2,2-trifluoroethyl)quinazolin-4-yl]-2,7-diazaspiro[3.5]non-7-yl}methyl)-1H-indole-2-carbonitrile]: 2000 to 5000 nM, 1000 to 5000 nM and 100 to 500 nM.
Turning to `N#Cc1cc2cc(CN3CCC4(CC3)CN(c3ncnc5ccc(CC(F)(F)F)cc35)C4)ccc2[nH]1` [Compound 98], in data set [1], the CC50 at 7 days fell in the range of 5000 to 10000 nM. In addition, the values for the half-maximal cytotoxic concentration (CC50) with MOLM-13 and in the data set on MV4-11 were 1000 to 5000 nM and 500 to 1000 nM, respectively.
The matching figures for `Cc1c(CN2CCC3(CC2)CN(c2ncnc4ccc(CC(F)(F)F)cc24)C3)ccc2c1cc(C#N)n2C[C@H]1CNC(=O)CO1` [Compound 101, 4-Methyl-1-{[(2R)-5-oxomorpholin-2-yl]methyl}-5-({2-[6-(2,2,2-trifluoroethyl)quinazolin-4-yl]-2,7-diazaspiro[3.5]non-7-yl}methyl)-1H-indole-2-carbonitrile]: 2000 to 5000 nM, 1000 to 5000 nM and 100 to 500 nM.
For `Cc1c(CN2CCC3(CC2)CN(c2ncnc4ccc(CC(F)(F)F)cc24)C3)ccc2c1cc(C#N)n2Cc1ccc(=O)[nH]c1` [Compound 14, 4-Methyl-1-[(6-oxo-1,6-dihydropyridin-3-yl)methyl]-5-({2-[6-(2,2,2-trifluoroethyl)quinazolin-4-yl]-2,7-diazaspiro[3.5]non-7-yl}methyl)-1H-indole-2-carbonitrile] the same measures were ≤ 2000 nM, ≤ 100 nM and ≤ 100 nM.
For `CCCCS(=O)(=O)N1CCCN(C(C)Cn2c(C#N)cc3c(C)c(CN4CCC5(CC4)CN(c4ncnc6ccc(CC(F)(F)F)cc46)C5)ccc32)CC1` (centres unmarked) [Compound 73, 1-{2-[4-(Butylsulfonyl)-1,4-diazepan-1-yl]propyl}-4-methyl-5-({2-[6-(2,2,2-trifluoroethyl)quinazolin-4-yl]-2,7-diazaspiro[3.5]non-7-yl}methyl)-1H-indole-2-carbonitrile] the same measures were > 20000 nM, 500 to 1000 nM and ≤ 100 nM.
As for `CS(=O)(=O)N1CCN(CCn2c(C#N)cc3cc(CN4CCC5(CC4)CN(c4ncnc6ccc(CC(F)(F)F)cc46)C5)ccc32)CC1` [Compound 91, 1-{2-[4-(Methylsulfonyl)piperazin-1-yl]ethyl}-5-({2-[6-(2,2,2-trifluoroethyl)quinazolin-4-yl]-2,7-diazaspiro[3.5]non-7-yl}methyl)-1H-indole-2-carbonitrile], the CC50 at 7 days in data set [1] is 5000 to 10000 nM. The values for the CC50 in the data set with MOLM-13 and with MV4-11 were 1000 to 5000 nM and 500 to 1000 nM, respectively.
Compound `Cc1c(CN2CCC3(CC2)CN(c2ncnc4ccc(CC(F)(F)F)cc24)C3)ccc2c1cc(C#N)n2CC1CNC(=O)C(C)O1` (centres unmarked) [Compound 7, 4-Methyl-1-[(6-methyl-5-oxo-morpholin-2-yl)methyl]-5-[[2-[6-(2,2,2-trifluoroethyl)quinazolin-4-yl]-2,7-diazaspiro[3.5]nonan-7-yl]methyl]indole-2-carbonitrile] came in with a CC50 at 7 days in data set [1] of 2000 to 5000 nM. In addition, the results for the CC50 in the data set on MOLM-13 and in the data set with MV4-11 were 100 to 500 nM and ≤ 100 nM, respectively.
The matching figures for `Cc1c(CN2CCC3(CC2)CN(c2ncnc4ccc(CC(F)(F)F)cc24)C3)ccc2c1cc(C#N)n2C[C@@H]1CNC(=O)CO1` [Compound 102, 4-Methyl-1-{[(2S)-5-oxomorpholin-2-yl]methyl}-5-({2-[6-(2,2,2-trifluoroethyl)quinazolin-4-yl]-2,7-diazaspiro[3.5]non-7-yl}methyl)-1H-indole-2-carbonitrile]: ≤ 2000 nM, 100 to 500 nM and ≤ 100 nM.
The matching figures for `C=CC(=O)N1CCN(CCCn2c(C#N)cc3c(C)c(CN4CCC5(CC4)CN(c4ncnc6ccc(CC(F)(F)F)cc46)C5)ccc32)CC1` [Compound 66, 4-methyl-1-[3-(4-prop-2-enoylpiperazin-1-yl)propyl]-5-[[2-[6-(2,2,2-trifluoroethyl)quinazolin-4-yl]-2,7-diazaspiro[3.5]nonan-7-yl]methyl]indole-2-carbonitrile]: 2000 to 5000 nM, 100 to 500 nM and 100 to 500 nM.
The matching figures for `Cc1c(CN2CCC3(CC2)CN(c2ncnc4ncc(CC(F)(F)F)nc24)C3)ccc2c1cc(C#N)n2CC(C)N1CCN(S(C)(=O)=O)CC1` (centres unmarked) [Compound 42, 4-Methyl-1-[2-(4-methylsulfonylpiperazin-1-yl)propyl]-5-[[2-[6-(2,2,2-trifluoroethyl)pteridin-4-yl]-2,7-diazaspiro[3.5]nonan-7-yl]methyl]indole-2-carbonitrile]: ≤ 2000 nM, 100 to 500 nM and 100 to 500 nM.
With `Cc1c(CN2CCC3(CC2)CN(c2ncnc4ccc(CC(F)(F)F)nc24)C3)ccc2c1cc(C#N)n2CC(C)N1CCN(S(C)(=O)=O)CC1` (centres unmarked) [Compound 67, 4-Methyl-1-{2-[4-(methylsulfonyl)piperazin-1-yl]propyl}-5-({2-[6-(2,2,2-trifluoroethyl)pyrido[3,2-d]pyrimidin-4-yl]-2,7-diazaspiro[3.5]non-7-yl}methyl)-1H-indole-2-carbonitrile], in data set [1], the CC50 at 7 days was in the range of 5000 to 10000 nM. Besides, the half-maximal cytotoxic concentration (CC50) in the data set on MOLM-13 and in the data set on MV4-11 was 100 to 500 nM each time.
`Cc1c(CN2CCC3(CC2)CN(c2ncnc4ccc(CC(F)(F)F)c(F)c24)C3)ccc2c1cc(C#N)n2CC1CNC(=O)CO1` (centres unmarked) [Compound 12, 5-[[2-[5-Fluoro-6-(2,2,2-trifluoroethyl)quinazolin-4-yl]-2,7-diazaspiro[3.5]nonan-7-yl]methyl]-4-methyl-1-[(5-oxomorpholin-2-yl)methyl]indole-2-carbonitrile]: the 50% cytotoxic concentration (CC50) at 7 days in data set [1] is ≤ 2000 nM. Besides, the half-maximal cytotoxic concentration (CC50) in the data set on MOLM-13 lay within 500 to 1000 nM; in the data set with MV4-11 it was 100 to 500 nM.
For `Cc1c(CN2CCC3(CC2)CN(c2ncnc4ccc(CC(F)(F)F)cc24)C3)ccc2[nH]c(C#N)cc12` [Compound 68, 4-Methyl-5-({2-[6-(2,2,2-trifluoroethyl)quinazolin-4-yl]-2,7-diazaspiro[3.5]non-7-yl}methyl)-1H-indole-2-carbonitrile] the same measures were 2000 to 5000 nM, 500 to 1000 nM and 100 to 500 nM.
Consider `Cc1c(CN2CCC3(CC2)CN(c2ncnc4ccc(CC(F)(F)F)cc24)C3)ccc2c1cc(C#N)n2CC1CNC(=O)NC1` [Compound 4, 4-Methyl-1-[(2-oxohexahydropyrimidin-5-yl)methyl]-5-[[2-[6-(2,2,2-trifluoroethyl)quinazolin-4-yl]-2,7-diazaspiro[3.5]nonan-7-yl]methyl]indole-2-carbonitrile], for which the CC50 lay in the range of 500 to 1000 nM in the data set with MOLM-13 and 100 to 500 nM in the data set on MV4-11.
